Where no end group is shown, it is not given here. [ ]: non-standard residue; d: D form. Phe(4-CN) = N#Cc1ccc(C[C@H](N)C(=O)O)cc1; Phe(3-Me) = Cc1cccc(C[C@H](N)C(=O)O)c1; dAllylGly = C=CC[C@@H](N)C(=O)O; AllylGly = C=CC[C@H](N)C(=O)O; hSer = N[C@@H](CCO)C(=O)O; Pra = C#CC[C@H](N)C(=O)O
How the values were obtained:
CaCo2 monolayers [1] = assay: Epithelial flux of Lucifer Yellow through cell monolayer; type: cell-based; design: key to Enhanced LY permeability: + indicates an enhancement of the permeability of the tight junctions were observed; − indicates no enhancement of permeability was observed; conditions: Lucifer Yellow flux, Caco-2 monolayer
Excerpt: (§1) Agonists of tight junctions can be identified by their ability to enhance the flux of compounds (e.g. ions, Lucifer Yellow) through a cell monolayer that comprises tight junctions; or by their ability to reduce TEER across a cell monolayer that comprises tight junctions. Treatment of CaCo2 monolayers with peptide FCIGRL (SEQ ID NO: 1) led to a 51-fold enhancement of Lucifer Yellow permeability through CaCo2 monolayers compared to vehicle alone. Treatment of CaCo2 monolayers with peptide FCIGRL led to a 16-fold decrease in TEER across CaCo2 monolayers compared to vehicle alone.
(§2) Determination of TEER and Lucifer Yellow Flux
(§3) Prepare Modified Hank's Balanced Salt Solution (MHBSS) by obtaining 1 L bottle of HBSS removing 10 ml of HBSS and replacing it with 10 ml HEPES buffer pH 7.0. Adjust pH to 7.4±0.1 using concentrated NaOH (10N).
(§4) Remove Caco-2 cells from incubator, grown on 12-well, […], polycarbonate Transwell® filters (Corning) and record passage#, date cells seeded and age in days.
(§5) Aspirate cell culture medium from both the apical (AP) and basolateral (BL) compartments, replacing with 0.5 ml and 1.5 ml of MHBSS, respectively. Incubate cells at 37° C. for 30 minutes.
(§6) Aspirate solution from the apical compartment of each filter (n=3 per condition) and replace with 0.5 ml of control and test solutions containing Lucifer Yellow and test compound if appropriate.
(§7) Place all plates into incubator set at 37° C. (±0.2), 50 RPM (±5) for a total of 180 minutes.
At t=60, 120 and 180 minutes remove 100 μl from each basolateral compartment and place it in a 96-well plate for Lucifer Yellow analysis, replace with 100 μl of MHBSS.
Make a Lucifer Yellow standard curve with the following dilutions (7500 μM, 3750 μM, 750 μM, 375 μM, 75 μM, 37.5 μM, 7.5 μM, 3.75 μM, 0.75 μM) and pipette […] of each into a 96-well plate except for the first three standards mentioned above which require a 1:10 dilutions prior to transferring to the 96-well plate.
Harvest the remaining start solutions and what is left in each apical compartment into 1.5 ml vials. Freeze at −20° C. for future analysis.
Analyze each 96-well plate in a Tecan Spectra Fluor Plus using Magellan at 485 and 535 nm.
(§8) Cells: Caco-2 cells passage 40-60 grown on Transwell® plates for 21-28 days
(§9) Culture Medium: DMEM supplemented with 10% fetal bovine serum, 1% NEAA, 1% Penn/Strep
(§10) Buffers: Hank's Balanced Salt Solution (HBSS) without calcium and magnesium
(§11) Flasks: 100×20 mm Tissue culture dish Falcon.
(§12) Plates: 12 well polycarbonate Transwell® filters; 0.3 uM pore size

CaCo2 monolayers [2] = assay: Trans Epithelial Electric Resistance (TEER) across cell monolayer; type: cell-based; design: key to Reduced TEER: + indicates an enhancement of the permeability of the tight junctions were observed; − indicates no enhancement of permeability was observed; conditions: Caco-2 monolayer
Excerpt: as §1, §2, §3, §4, §5
Using the MilliCell®-ERS instrument (Millipore), measure and record the transepithelial electrical resistance (TEER) across each filter and record.
as §6, §7
At t=30, 60, 120 and 180 minutes, measure and record the transepithelial electrical resistance (TEER) across each filter using the MilliCell-ERS instrument.
as §8, §9, §10, §11, §12

| Substance | Enhanced LY permeability (CaCo2 monolayers [1]) | Reduced TEER (CaCo2 monolayers [2]) |
| --- | --- | --- |
| 165 (F[dL]IGRL-NH2; also: peptide conjugate) [compound 165] | − | − |
| 166 (LRG[dI]LF-NH2; also: peptide conjugate) [compound 166] | − | − |
| 168 (F[L‑4,5‑dehydro‑leucine]IGRL; not fully specified; also: peptide conjugate) [compound 168] | + | − |
| 169 (Ac-F[hSer]IGR-NH2; also: peptide conjugate) [compound 169] | − | − |
| 170 (F[hSer][dI]GR-NH2; also: peptide conjugate) [compound 170] | − | − |
| 171 (Ac-F[hSer]IGRL-NH2; also: peptide conjugate) [compound 171] | − | − |
| 172 (F[hSer][dI]GRL; not fully specified; also: peptide conjugate, Xaa: 'may be' homoserine) [compound 172] | − | − |
| 173 ([Phe(4-CN)]FIGRL; also: peptide conjugate, Xaa: 'may be' L-4-cyano-phenylalanine) [compound 173] | − | − |
| 174 ([Phe(3-Me)]FIGRL; not fully specified; also: peptide conjugate) [compound 174] | − | − |
| 175 (F[L‑beta‑cyclopropyl‑alanine]IGRL; also: peptide conjugate) [compound 175] | − | − |
| 176 (F[Pra]IGR-NH2; N-terminus assumed; SMILES C#CC[C@H](NC(=O)[C@@H](N)Cc1ccccc1)C(=O)N[C@H](C(=O)NCC(=O)N[C@@H](CCCNC(=N)N)C(N)=O)[C@@H](C)CC) [compound 176] | − | − |
| 183 (F[AllylGly]IGRL-OH; N-terminus assumed; SMILES C=CC[C@H](NC(=O)[C@@H](N)Cc1ccccc1)C(=O)N[C@H](C(=O)NCC(=O)N[C@@H](CCCNC(=N)N)C(=O)N[C@@H](CC(C)C)C(=O)O)[C@@H](C)CC) [compound 183] | + | + |
| 184 (F[AllylGly]IGR-NH2; N-terminus assumed; SMILES C=CC[C@H](NC(=O)[C@@H](N)Cc1ccccc1)C(=O)N[C@H](C(=O)NCC(=O)N[C@@H](CCCNC(=N)N)C(N)=O)[C@@H](C)CC) [compound 184] | − | − |
| 185 (F[dAllylGly]IGR-NH2; N-terminus assumed; SMILES C=CC[C@@H](NC(=O)[C@@H](N)Cc1ccccc1)C(=O)N[C@H](C(=O)NCC(=O)N[C@@H](CCCNC(=N)N)C(N)=O)[C@@H](C)CC) [compound 185] | − | − |
| 186 (M[AllylGly]IGRL-NH2; N-terminus assumed; SMILES C=CC[C@H](NC(=O)[C@@H](N)CCSC)C(=O)N[C@H](C(=O)NCC(=O)N[C@@H](CCCNC(=N)N)C(=O)N[C@@H](CC(C)C)C(N)=O)[C@@H](C)CC) [compound 186] | − | − |
| 187 (Q[AllylGly]IGRL-NH2; N-terminus assumed; SMILES C=CC[C@H](NC(=O)[C@@H](N)CCC(N)=O)C(=O)N[C@H](C(=O)NCC(=O)N[C@@H](CCCNC(=N)N)C(=O)N[C@@H](CC(C)C)C(N)=O)[C@@H](C)CC) [compound 187] | − | − |
| 188 (L[AllylGly]IGRL-NH2; N-terminus assumed; SMILES C=CC[C@H](NC(=O)[C@@H](N)CC(C)C)C(=O)N[C@H](C(=O)NCC(=O)N[C@@H](CCCNC(=N)N)C(=O)N[C@@H](CC(C)C)C(N)=O)[C@@H](C)CC) [compound 188] | − | − |
| 189 (S[AllylGly]IGRL-NH2; N-terminus assumed; SMILES C=CC[C@H](NC(=O)[C@@H](N)CO)C(=O)N[C@H](C(=O)NCC(=O)N[C@@H](CCCNC(=N)N)C(=O)N[C@@H](CC(C)C)C(N)=O)[C@@H](C)CC) [compound 189] | − | − |
| 190 (T[AllylGly]IGRL-NH2; N-terminus assumed; SMILES C=CC[C@H](NC(=O)[C@@H](N)[C@@H](C)O)C(=O)N[C@H](C(=O)NCC(=O)N[C@@H](CCCNC(=N)N)C(=O)N[C@@H](CC(C)C)C(N)=O)[C@@H](C)CC) [compound 190] | − | − |
| 191 (E[AllylGly]IGRL-NH2; N-terminus assumed; SMILES C=CC[C@H](NC(=O)[C@@H](N)CCC(=O)O)C(=O)N[C@H](C(=O)NCC(=O)N[C@@H](CCCNC(=N)N)C(=O)N[C@@H](CC(C)C)C(N)=O)[C@@H](C)CC) [compound 191] | − | − |
| 192 (V[AllylGly]IGRL-NH2; N-terminus assumed; SMILES C=CC[C@H](NC(=O)[C@@H](N)C(C)C)C(=O)N[C@H](C(=O)NCC(=O)N[C@@H](CCCNC(=N)N)C(=O)N[C@@H](CC(C)C)C(N)=O)[C@@H](C)CC) [compound 192] | − | − |
| 193 (Y[AllylGly]IGRL-NH2; N-terminus assumed; SMILES C=CC[C@H](NC(=O)[C@@H](N)Cc1ccc(O)cc1)C(=O)N[C@H](C(=O)NCC(=O)N[C@@H](CCCNC(=N)N)C(=O)N[C@@H](CC(C)C)C(N)=O)[C@@H](C)CC) [compound 193] | − | − |
| 194 (G[AllylGly]IGRL-NH2; N-terminus assumed; SMILES C=CC[C@H](NC(=O)CN)C(=O)N[C@H](C(=O)NCC(=O)N[C@@H](CCCNC(=N)N)C(=O)N[C@@H](CC(C)C)C(N)=O)[C@@H](C)CC) [compound 194] | − | − |
| 195 (D[AllylGly]IGRL-NH2; N-terminus assumed; SMILES C=CC[C@H](NC(=O)[C@@H](N)CC(=O)O)C(=O)N[C@H](C(=O)NCC(=O)N[C@@H](CCCNC(=N)N)C(=O)N[C@@H](CC(C)C)C(N)=O)[C@@H](C)CC) [compound 195] | − | − |
| 196 (W[AllylGly]IGRL-NH2; N-terminus assumed; SMILES C=CC[C@H](NC(=O)[C@@H](N)Cc1c[nH]c2ccccc12)C(=O)N[C@H](C(=O)NCC(=O)N[C@@H](CCCNC(=N)N)C(=O)N[C@@H](CC(C)C)C(N)=O)[C@@H](C)CC) [compound 196] | + | − |
| 197 (K[AllylGly]IGRL-NH2; N-terminus assumed; SMILES C=CC[C@H](NC(=O)[C@@H](N)CCCCN)C(=O)N[C@H](C(=O)NCC(=O)N[C@@H](CCCNC(=N)N)C(=O)N[C@@H](CC(C)C)C(N)=O)[C@@H](C)CC) [compound 197] | − | − |

Reference: US20120027720A1, “PEPTIDE CONJUGATES” (priority 2008, published 2012)
